Experiment: crystal formation of active ingredient mixtures from acetone after one week storage at 20° C.
Type: physicochemical
Conditions: stored one week at 20° C.
Procedure: The active ingredients were dissolved in acetone (see Table 1) and combined to give the mixing ratios (Table 2). The acetone was evaporated for two days at room temperature and then stripped off in vacuum for 5 h at 80° C. (method A). Temperature-insensitive active ingredients Were subsequently melted for an additional 15 h at 140° C. (method B). The samples were cooled to 20° C. in each case and stored for one week at 20° C.

[1] = method B (as A, then melted 15 h at 140° C.)

For Fc1ccc([C@]2(Cn3cncn3)O[C@H]2c2ccccc2Cl)cc1 (racemic) [Epoxiconazole], the Crystal formation [1] was “Yes”.

In the case of O=C(Nc1ccccc1-c1ccc(Cl)cc1)c1cccnc1Cl [Boscalid], the Crystal formation [1] is reported as “Yes”.

For Cn1cc(C(=O)Nc2ccccc2-c2cc(F)c(F)c(F)c2)c(C(F)F)n1 [Fungicide A, N-(3′,4′,5′-trifluorobiphenyl-2-yl)-3-difluoromethyl-1-methyl-1H-pyrazole-4-carboxamide], the Crystal formation [1] was “Yes”.

For COCC(=O)N(c1c(C)cccc1C)C(C)C(=O)OC (centres unmarked) [Metalaxyl], the Crystal formation (method A (acetone evaporated, vacuum 5 h at 80° C.)) was “Yes”.

With CC1(C)CCC(=Cc2ccc(Cl)cc2)C1(O)Cn1cncn1 (centres unmarked) [Triticonazole] the Crystal formation [1] was “Yes”.

Reference: US8735321B2, “Process for the production of particles comprising active agrochemical ingredients in amorphous form” (priority 2008, dated 2014)
